# Laboratory results taken from US7250521B2, “Method for production of Δ1-pyrrolines” (Bayer CropScience Aktiengesellschaft, priority 2001, dated 2007).
# Experiment: logP determination by HPLC on reverse-phase column (C 18), EEC directive 79/831 Annex V.A8
# Type: physicochemical
# Description: In the acidic range, the determination is carried out at pH 2.3 using the mobile phases 0.1% aqueous phosphoric acid and acetonitrile; linear gradient from 10% acetonitrile to 90% acetonitrile.
# In the neutral range, the determination is carried out at pH 7.5 using the mobile phases 0.01 molar aqueous phosphate buffer solution and acetonitrile; linear gradient from 10% acetonitrile to 90% acetonitrile.
# [1] = reverse-phase HPLC column (C 18), pH 2.3, acidic range, pH 2.3; 0.1% aqueous phosphoric acid/acetonitrile gradient; 43° C.; values marked a)
# [2] = reverse-phase HPLC column (C 18), pH 7.5, neutral range, pH 7.5; 0.01 molar aqueous phosphate buffer/acetonitrile gradient; 43° C.; values marked b)
# [3] = acidic range, pH 2.3; 0.1% aqueous phosphoric acid/acetonitrile gradient; 43° C.; values marked a)
SMILES,chromatographic logP [1],chromatographic logP [2],logP [3],chromatographic logP [3]
"O=C1CCC(c2ccc(-c3ccc(SC(F)(F)F)cc3)cc2)N1 (single isomer, unassigned; isomer 5) [V-2 para isomer, 5-{4′-[(trifluoromethyl)thio]-1,1′-biphenyl-4-yl}-2-pyrrolidinone]",3.24,,,
"FC(F)(F)Oc1ccc(C2CCC(c3ccccc3Br)=N2)cc1 (stereo not shown) [Example 1, 5-(2-bromophenyl)-2-[4-(trifluoro-methoxy)phenyl]-3,4-dihydro-2H-pyrrole]",3.61,,,
Cc1cc(Cl)ccc1C1CCC(c2ccccc2Br)=N1 (stereo not shown) [Example 29],3.55,4.63,,
Fc1cccc(F)c1C1=NC(c2ccc(OCc3ccc(Cl)cc3)cc2)CC1 (stereo not shown) [Example 107],3.26,,,
O=C1CCC(c2ccc(-c3ccc(O)cc3)cc2)N1 (stereo not shown) [Example V-18],1.47,,,
COc1ccc(C2CCC(c3ccccc3Cl)=N2)cc1F (stereo not shown) [Example 40],1.97,3.52,,
"CC(C)(C)OC(=O)N1C(=O)C(C(=O)c2ccccc2Br)CC1c1ccc(OC(F)(F)F)cc1 (stereo not shown) [II-1, tert-butyl 3-(2-bromobenzoyl)-2-oxo-5-[4-(trifluoromethoxy)phenyl]-1-pyrrolidinecarboxylate]",,3.35,,
O=C1CCC(c2ccc(Cl)cc2Cl)N1 (stereo not shown) [Example V-8],2.02,,,
Cc1ccccc1C1=NC(c2ccc(C(C)(C)C)cc2)CC1 (stereo not shown) [Example 27],2.31,,,
Cc1ccc(C2CCC(c3ccccc3F)=N2)c(Cl)c1 (stereo not shown) [Example 50],2.39,4.74,,
FC(F)(F)Oc1ccc(C2CCC(c3ccccc3Br)=N2)cc1 (stereo not shown) [Example 53],,,3.63^a),
Fc1ccc(C2CCC(c3ccccc3Cl)=N2)cc1F (stereo not shown) [Example 49],2.67,3.86,,
Fc1ccc(C2CCC(c3ccc(Br)cc3)=N2)cc1 (stereo not shown) [Example 100],1.73,4.14,,
Fc1cccc(F)c1C1=NC(c2ccccc2)CC1 (stereo not shown) [Example 93],1.75,,,
CC(C)(C)OC(=O)N1C(=O)CCC1c1ccc(Cl)c(Cl)c1 (stereo not shown) [III-11],3.29,,,
CC(C)(C)OC(=O)N1C(=O)CCC1c1ccc(C2CCCCC2)cc1 (stereo not shown) [III-18],4.71,,,
Clc1ccc(C2CCC(c3ccccc3Br)=N2)cc1 (stereo not shown) [Example 83],2.96,4.22,,
Fc1cc(F)c(C2=NC(c3ccc(-c4ccc(OC(F)(F)F)cc4)cc3)CC2)c(F)c1 (stereo not shown) [Example 117],4.57,,,
Cc1ccc(C2CCC(=O)N2)cc1Cl (stereo not shown) [Example V-12],1.92,,,
Brc1ccc(C2=NC(c3ccccc3)CC2)cc1 (stereo not shown) [Example 72],1.59,4.06,,
Cc1ccc(C2CCC(c3ccccc3Cl)=N2)cc1Cl (stereo not shown) [Example 54],2.98,4.67,,
COc1ccc(C2CCC(c3ccccc3Br)=N2)cc1F (stereo not shown) [Example 43],2.22,,,
CC(C)(C)c1ccc(C2CCC(=O)N2)cc1 (stereo not shown) [Example V-4],1.9,,,
Cc1cccc(C)c1C1=NC(c2ccc(-c3ccc(OC(F)(F)F)cc3)cc2)CC1 (stereo not shown) [Example 6],5.7,,,
Clc1ccccc1C1=NC(c2ccc(CCc3ccccc3)cc2)CC1 (stereo not shown) [Example 70],3.47,5.33,,
FC(F)(F)Oc1ccc(C2CCC(c3ccccc3Cl)=N2)cc1 (stereo not shown) [Example 41],,4.5,,

SMILES,chromatographic logP [1],chromatographic logP [2],logP [3],chromatographic logP [3]
O=C1CCC(c2ccc(O)cc2)N1 (stereo not shown) [Example V-19],0.55,,,
Clc1ccccc1C1=NC(c2ccc(Br)cc2)CC1 (stereo not shown) [Example 89],2.76,4.36,,
Cc1ccccc1C1=NC(c2ccccc2)CC1 (stereo not shown) [Example 94],1.29,3.7,,
Fc1cccc(F)c1C1=NC(c2ccc(SCc3ccc(Cl)cc3)cc2)CC1 (stereo not shown) [Example 59],2.88,,,
Clc1ccc(C2CCC(c3ccccc3Cl)=N2)cc1 (stereo not shown) [Example 82],2.6,4.23,,
Cc1ccc(C2CCC(=O)N2C(=O)OC(C)(C)C)c(Cl)c1 (stereo not shown) [III-9],3.83,,,
Clc1ccccc1C1=NC(c2ccccc2)CC1 (stereo not shown) [Example 91],1.64,3.61,,
Fc1ccccc1C1=NC(c2ccc(C3CCCCC3)cc2)CC1 (stereo not shown) [Example 79],2.86,5.95,,
O=C1CCC(c2ccc(Cl)c(Cl)c2)N1 (stereo not shown) [Example V-10],1.92,,,
Fc1cccc(F)c1C1=NC(c2ccc(OCC(F)(F)F)cc2)CC1 (stereo not shown) [Example 9],2.41,,,
CC(C)(C)OC(=O)N1C(=O)CCC1c1ccc(-c2ccc(OCc3ccc(OC(F)(F)F)cc3)cc2)cc1 (stereo not shown) [III-25],5.03,,,
CC(C)(C)OC(=O)N1C(=O)CCC1c1ccc(F)cc1 (stereo not shown) [III-21],2.57,,,
Fc1ccc(C2CCC(c3ccccc3Br)=N2)cc1F (stereo not shown) [Example 56],3.01,3.89,,
FC(F)(F)Oc1ccc(-c2ccc(C3CCC(c4ccccc4C(F)(F)F)=N3)cc2)cc1 (stereo not shown) [Example 3],5.11,,,
O=C1CCC(c2ccc(Br)cc2)N1 (stereo not shown) [Example V-16],1.72,,,
FC(F)(F)Oc1ccc(C2=NC(c3cccc(Cl)c3)CC2)cc1 (stereo not shown) [Example 105],4.87,,,
Cc1cc(OC(F)(F)F)ccc1-c1ccc(C2CCC(c3c(F)cccc3F)=N2)cc1 (stereo not shown) [Example 111],4.55,,,
"CCOc1cc(C(C)(C)C)ccc1C1CCC(=O)N1 (stereo not shown) [Example V-3, 5-(4-tert-butyl-2-ethoxyphenyl)-2-pyrrolidinone]",2.84,,,
CCOC(=O)Oc1ccc(-c2ccc(C3CCC(c4ccccc4Cl)=N3)cc2)cc1 (stereo not shown) [Example 96],3.14,,,
Clc1ccccc1C1=NC(c2cccc(Br)c2)CC1 (stereo not shown) [Example 15],2.99,,,
CCOc1cc(C(C)(C)C)ccc1C1CCC(c2ccccc2Br)=N1 (stereo not shown) [Example 57],3.31,5.8,,
CC(=O)c1ccc(C2CCC(c3ccccc3Cl)=N2)cc1 (stereo not shown) [Example 75],1.88,3.06,,
COc1ccc(C2CCC(c3ccccc3Br)=N2)cc1 (stereo not shown) [Example 42],1.79,3.5,,
FC(F)(F)Oc1ccc(-c2ccc(C3CCC(c4ccc(Br)cc4)=N3)cc2)cc1 (stereo not shown) [Example 101],3.51,5.95,,
Fc1ccc(C2CCC(c3cccc(Cl)c3)=N2)cc1 (stereo not shown) [Example 33],1.98,4.05,,
CC(C)(C)OC(=O)N1C(=O)CCC1c1ccc(F)c(F)c1 (stereo not shown) [III-12],2.67,,,

SMILES,chromatographic logP [1],chromatographic logP [2],logP [3],chromatographic logP [3]
Fc1ccccc1C1=NC(c2ccc(-c3ccc(SC(F)(F)F)cc3)cc2)CC1 (stereo not shown) [Example 17],3.45,5.84,,
FC(F)(F)Sc1ccc(-c2ccc(C3CCC(c4ccccc4Cl)=N3)cc2)cc1 (stereo not shown) [Example 16],4.67,5.94,,
Clc1ccc(C2=NC(c3ccc(Br)cc3)CC2)cc1 (stereo not shown) [Example 92],2.17,,,
CC(C)c1ccc(C2CCC(=O)N2)cc1 (stereo not shown) [Example V-5],2.13,,,
Clc1cccc(C2=NC(c3ccccc3)CC2)c1 (stereo not shown) [Example 48],1.73,3.97,,
Clc1ccccc1C1=NC(c2ccc(C3CCCCC3)cc2)CC1 (stereo not shown) [Example 67],,6.04,,
Fc1ccc(C2CCC(c3ccccc3Cl)=N2)c(F)c1 (stereo not shown) [Example 60],2.9,3.96,,
Cc1cc(Cl)ccc1C1CCC(c2ccccc2Cl)=N1 (stereo not shown) [Example 28],3.18,4.62,,
Fc1ccc(F)c(C2=NC(c3ccc(-c4ccc(SC(F)(F)F)cc4)cc3)CC2)c1F (stereo not shown) [Example 115],5.46,,,
O=C1CCC(c2ccc(Cl)cc2)N1 (stereo not shown) [Example V-11],,,,1.61
CC(C)(C)OC(=O)N1C(=O)CCC1c1ccc(F)cc1F (stereo not shown) [III-16],2.69,,,
Fc1cccc(F)c1C1=NC(c2ccc(OCc3ccc(OC(F)(F)F)cc3)cc2)CC1 (stereo not shown) [Example 109],3.61,,,
CC(C)(C)OC(=O)N1C(=O)CCC1c1ccccc1 (stereo not shown) [III-2],2.52,,,
CC(C)(C)OC(=O)N1C(=O)CCC1c1ccc(Cl)cc1Cl (stereo not shown) [III-10],3.54,,,
FC(F)(F)c1ccccc1C1=NC(c2ccc(Br)cc2)CC1 (stereo not shown) [Example 2],3.9,,,
Fc1ccc(F)c(C2=NC(c3ccc(-c4ccc(OC(F)(F)F)cc4)cc3)CC2)c1F (stereo not shown) [Example 118],5.05,,,
Fc1cccc(F)c1C1=NC(c2ccc(OC(F)(F)F)cc2)CC1 (stereo not shown) [Example 73],,4.13,,
Cc1ccc(C2CCC(c3ccccc3Cl)=N2)c(Cl)c1 (stereo not shown) [Example 38],3.52,4.86,,
Clc1ccc(C2CCC(c3ccccc3Cl)=N2)c(Cl)c1 (stereo not shown) [Example 46],4.66,5.2,,
Brc1ccccc1C1=NC(c2ccc(C3CCCCC3)cc2)CC1 (stereo not shown) [Example 77],4.23,6.03,,
Fc1ccc(C2CCC(c3ccc(Cl)cc3)=N2)cc1 (stereo not shown) [Example 34],1.63,3.99,,
Cc1ccc(C2CCC(c3ccccc3Br)=N2)cc1Cl (stereo not shown) [Example 62],3.36,4.69,,
CC(C)(C)OC(=O)N1C(=O)CCC1c1ccc(-c2ccc(SC(F)(F)F)cc2)cc1 (stereo not shown) [III-3],4.67,,,
Cc1cc(Cl)ccc1C1CCC(=O)N1C(=O)OC(C)(C)C (stereo not shown) [III-6],3.24,3.25,,
Cc1ccc(C2CCC(c3ccccc3Br)=N2)cc1 (stereo not shown) [Example 81],2.17,4.07,,
